Reference: ChEMBL document CHEMBL1123444, “Analgesic actions of 3-substituted 6-tert-butyl-1,2,3,4,5,6-hexahydro-2,6-methano-3-benzazocines” (1986)
Active and inactive are the calls of the source. The calls are words filed in the database; no cut-off is given here.

What was measured:
[1] = organism: Mus musculus; assay: Compound was evaluated for analgesic activity using mouse hotplate test; format: functional
[2] = system: Mus musculus; assay: Compound was evaluated for analgesic activity using mouse hotplate test, at the dose 50 mg/kg; Inactive; format: functional, organism-based; set-up: dose 50 mg/kg
[3] = system: Mus musculus; assay: Compound was evaluated for analgesic activity using mouse hotplate test at 7.1-13.8 mg/kg dose; format: functional
[4] = system: Mus musculus; assay: Compound was evaluated for analgesic activity using mouse hotplate test, at the dose 20 mg/kg; Inactive; format: functional, organism-based; set-up: dose 20 mg/kg

CN1CC[C@]23c4c5ccc(O)c4O[C@H]2[C@@H](O)C=C[C@H]3[C@H]1C5.CN1CC[C@]23c4c5ccc(O)c4O[C@H]2[C@@H](O)C=C[C@H]3[C@H]1C5.O=S(=O)(O)O
ED50 [1]: 1.2 mg/kg

CN1CCC2(C(C)(C)C)CC1Cc1ccccc12 (stereo not given)
ED50 [1]: 14.1 mg/kg

C=CCN1CCC2(C(C)(C)C)CC1Cc1ccccc12 (stereo not given)
ED50 [2]: inactive

CC(C)(C)C12CCN(CCc3ccccc3)C(Cc3ccccc31)C2 (stereo not given)
ED50 [3]: 9.9 mg/kg

CC(C)(C)C12CCN(CC3CC3)C(Cc3ccccc31)C2 (stereo not given)
ED50 [4]: inactive
